Assays:
[1] = refractive index (Na D-line) (dimensionless); conditions: 100 kPa, Liquid, Standard Abbe refractometry
[2] = 100 kPa, Liquid; for electrical conductivity: Frequency=0.0006 MHz, Alternating current cell with electrodes; for viscosity: Concentric cylinders viscometry; for mass density: Vibrating tube method

CCCC[N+](C)(C)CC.O=S(=O)([N-]S(=O)(=O)C(F)(F)F)C(F)(F)F
Conditions	electrical conductivity [S/m]	mass density [kg/m3]	refractive index	viscosity [mPa·s]
[1], 283.15 K	–	–	1.4174	–
[1], 288.15 K	–	–	1.416	–
[1], 293.15 K	–	–	1.4147	–
[1], 298.15 K	–	–	1.4133	–
[1], 303.15 K	–	–	1.412	–
[1], 308.15 K	–	–	1.4106	–
[1], 313.15 K	–	–	1.4092	–
[1], 318.15 K	–	–	1.4078	–
[1], 323.15 K	–	–	1.4064	–
[1], 328.15 K	–	–	1.4051	–
[1], 333.15 K	–	–	1.4038	–
[1], 338.15 K	–	–	1.4024	–
[1], 343.15 K	–	–	1.4012	–
[1], 348.15 K	–	–	1.3998	–
[1], 353.15 K	–	–	1.3985	–
[1], 358.15 K	–	–	1.3973	–
[2], 283.15 K	0.082	–	–	–
[2], 288.15 K	0.11	1380.6	–	176.1
[2], 289.15 K	–	1379.7	–	–
[2], 290.15 K	–	1378.8	–	–
[2], 291.15 K	–	1377.9	–	–
[2], 292.15 K	–	1377	–	–
[2], 293.15 K	0.143	1376.1	–	132.4
[2], 294.15 K	–	1375.2	–	–
[2], 295.15 K	–	1374.3	–	–
[2], 296.15 K	–	1373.4	–	–
[2], 297.15 K	–	1372.5	–	–
[2], 298.15 K	0.182	1371.6	–	100.5
[2], 299.16 K	–	1370.8	–	–
[2], 300.16 K	–	1369.9	–	–
[2], 301.15 K	–	1369	–	–
[2], 302.15 K	–	1368.1	–	–
[2], 303.15 K	0.228	1367.2	–	78.4
[2], 304.15 K	–	1366.3	–	–
[2], 305.15 K	–	1365.4	–	–
[2], 306.15 K	–	1364.6	–	–
[2], 307.15 K	–	1363.7	–	–
[2], 308.15 K	0.279	1362.8	–	62.3
[2], 309.15 K	–	1361.9	–	–
[2], 310.15 K	–	1361.1	–	–
[2], 311.15 K	–	1360.2	–	–
[2], 312.15 K	–	1359.3	–	–
[2], 313.15 K	0.337	1358.4	–	50.9
[2], 314.15 K	–	1357.6	–	–
[2], 315.15 K	–	1356.7	–	–
[2], 316.15 K	–	1355.8	–	–
[2], 317.15 K	–	1355	–	–
[2], 318.15 K	0.401	1354.1	–	41.2
[2], 319.15 K	–	1353.2	–	–
[2], 320.15 K	–	1352.3	–	–
[2], 321.15 K	–	1351.5	–	–
[2], 322.15 K	–	1350.6	–	–
[2], 323.15 K	0.473	1349.7	–	34.2
[2], 324.15 K	–	1348.9	–	–
[2], 325.15 K	–	1348	–	–
[2], 326.15 K	–	1347.2	–	–
[2], 327.15 K	–	1346.3	–	–
[2], 328.15 K	–	1345.5	–	28.8
[2], 329.15 K	–	1344.6	–	–
[2], 330.15 K	–	1343.7	–	–
[2], 331.15 K	–	1342.9	–	–
[2], 332.15 K	–	1342	–	–
[2], 333.15 K	–	1341.2	–	24.8
[2], 334.15 K	–	1340.3	–	–
[2], 335.16 K	–	1339.5	–	–
[2], 336.15 K	–	1338.6	–	–
[2], 337.15 K	–	1337.8	–	–
[2], 338.15 K	–	1336.9	–	21
[2], 339.15 K	–	1336	–	–
[2], 340.15 K	–	1335.2	–	–
[2], 341.15 K	–	1334.3	–	–
[2], 342.15 K	–	1333.5	–	–
[2], 343.15 K	–	1332.6	–	18.2
[2], 344.15 K	–	1331.8	–	–
[2], 345.15 K	–	1330.9	–	–
[2], 346.15 K	–	1330.1	–	–
[2], 347.15 K	–	1329.2	–	–
[2], 348.15 K	–	1328.4	–	15.9
[2], 349.15 K	–	1327.5	–	–
[2], 350.15 K	–	1326.7	–	–
[2], 351.15 K	–	1325.9	–	–
[2], 352.15 K	–	1325	–	–
[2], 353.15 K	–	1324.2	–	14.2
[2], 354.15 K	–	1323.3	–	–
[2], 355.15 K	–	1322.5	–	–
[2], 356.15 K	–	1321.6	–	–
[2], 357.15 K	–	1320.8	–	–
[2], 358.15 K	–	1319.9	–	12.4
[2], 359.15 K	–	1319.1	–	–
[2], 360.15 K	–	1318.3	–	–
[2], 361.15 K	–	1317.4	–	–
[2], 362.16 K	–	1316.6	–	–
[2], 363.15 K	–	1315.7	–	11

— the NIST ThermoML archive (doi:10.1021/acs.jced.9b00442)
